In patent publication US8580545B2, “Biodegradable linkers for molecular therapies” (The Children's Hospital of Philadelphia, priority 2004, dated 2013):

Experiment: Hydrolysis of the ester bond of the cross-linker (model experiments)
Conditions: 37° C.

| t1/2 of the ester bond hydrolysis | SMILES |
| --- | --- |
| several weeks | O=C(CCSSc1ccccn1)NCCCOC(=O)CCCCC(=O)ON1C(=O)CC(S(=O)(=O)[O-])C1=O.[Na+] (centres unmarked) [cross-linker 1] |
| several days | O=C(CCCCC(=O)ON1C(=O)CC(S(=O)(=O)[O-])C1=O)NCC(=O)OCCSSc1ccccn1.[Na+] (centres unmarked) [cross-linker 2] |
